In patent publication US20120079612A1, “Dry eye animal model” (West Virginia University, priority 2010, published 2012):

Experiments:
Serum E2 levels = type: in vivo, Sprague-Dawley rats; details: Example 2: rats at 18 months after 1.5 mg 90-day pellet implanted at 15 months; compared to Intact (placebo) rats
Method: Female Sprague-Dawley rats, age 15 months, were subcutaneously implanted with placebo pellets and E2 rats received pellets containing 1.5 mg of 17β-estradiol in a 90-day time-release matrix. Both groups received treatment until they reached 18 months of age. Serum E2 levels were measured from blood collected prior to randomization to treatment groups and again at time of euthanasia. […] Serum E2 levels of rats prior to randomization at 15 months of age (Pre) and two weeks before gland excision, at 18 months of age (Post). […] Also, Tear Volume Assessment and Tear Break-up Time both have been examined in the rats. […] TBUT was also altered by estrogen treatment with E2 rats having a significant reduction in time to first tear disruption compared to Intact rats (16.4±1.1 sec and 33.7±1.9 sec, respectively; p<0.001) (FIG. 5). Tear volume was measured in 18 month old female rats during 3 months of E2 or placebo supplementation. […] (B) Tear break up time was also measured in rats receiving placebo or E2 treatment using fluorescein sodium (0.25%).

female rats [1] = experiment: Tear volume, modified Schirmer's test; type: in vivo, Sprague-Dawley rats
Method: (§1) Female rats of 9 months of age were ovariectomized and immediately supplemented with 1.5 mg of 17β-estradiol in three, separate 90-day time release pellets until 18 months. Three experimental groups were used with ovaries excised from rats in treatment […] (FIG. 1). Group 1 underwent a sham ovariectomy and was implanted with placebo pellet, Group 2 underwent an ovariectomy and was implanted with placebo pellet, and Group 3 underwent an ovariectomy and was implanted with E2 pellet. The three groups had tear breakup time and tear volume tested. […] The time lapse between the last blink and the first randomly distributed dry spot on the cornea using a portable slit lamp was recorded. The process was repeated 3 times for each subject and the results recorded (FIG. 2). […] Rats received 0.5 uL Fluress onto the eye, then the eye was manually blinked 3 times, and the modified Schirmer's strip was placed in the upper fornix for 5 minutes for assessment of tear volume and the volume was recorded (FIG. 3).
(§2) Female Sprague-Dawley rats, age 15 months, were subcutaneously implanted with placebo pellets and E2 rats received pellets containing 1.5 mg of 17β-estradiol in a 90-day time-release matrix. […] Serum E2 levels were measured from blood collected prior to randomization to treatment groups and again at time of euthanasia. […]

female rats [2] = experiment: Tear breakup time (TBUT), Fluress and slit lamp; type: in vivo, Sprague-Dawley rats
Method: as §1, §2

women = details: compared to non-treated women of the same age, the estrogen-alone figure is for women with prior hysterectomy; cited from earlier work
[3] = Example 1: rats ovariectomized at 9 months, 1.5 mg 17β-estradiol 90-day pellets until 18 months, compared to control groups 1 and 2
[4] = Example 2: post-menopausal rats at 18 months, 3 months of E2 supplementation, p<0.001 vs Intact rats

Molecule | serum E2 levels (Serum E2 levels) | tear volume (female rats [1]; [3]) | tear volume (female rats [1]; [4]) [mm] | tear break up time (female rats [2]; [3]) | TBUT, time to first tear disruption (female rats [2]; [4]) [s] | increase of KCS (women) [%]
C[C@]12CC[C@@H]3c4ccc(O)cc4CC[C@H]3[C@@H]1CC[C@@H]2O [E2, 17β-estradiol] | significantly elevated | reduced tear volume | 7.4±0.58 | shorter tear break up time | 16.4 ± 1.1 | –
estrogen | – | – | – | – | – | ~70
